Tests used:
[1] = Inhibition of recombinant human HDAC3/NCOR1 using fluorescent deacetylated substrate incubated for 15 mins by fluorescence based assay
Histone deacetylase 1 [2] = molecular target: T1, Histone deacetylase 1 (Homo sapiens, UniProt Q13547); assay: Inhibition of recombinant human HDAC1 using fluorescent deacetylated substrate incubated for 15 mins by fluorescence based assay
Histone deacetylase 2 = Histone deacetylase 2 (Homo sapiens, UniProt Q92769); assay: Inhibition of recombinant human HDAC2 using fluorescent green substrate incubated for 30 mins by fluorescence based assay
Chain of Histone deacetylase 2 (Q92769 whole entry): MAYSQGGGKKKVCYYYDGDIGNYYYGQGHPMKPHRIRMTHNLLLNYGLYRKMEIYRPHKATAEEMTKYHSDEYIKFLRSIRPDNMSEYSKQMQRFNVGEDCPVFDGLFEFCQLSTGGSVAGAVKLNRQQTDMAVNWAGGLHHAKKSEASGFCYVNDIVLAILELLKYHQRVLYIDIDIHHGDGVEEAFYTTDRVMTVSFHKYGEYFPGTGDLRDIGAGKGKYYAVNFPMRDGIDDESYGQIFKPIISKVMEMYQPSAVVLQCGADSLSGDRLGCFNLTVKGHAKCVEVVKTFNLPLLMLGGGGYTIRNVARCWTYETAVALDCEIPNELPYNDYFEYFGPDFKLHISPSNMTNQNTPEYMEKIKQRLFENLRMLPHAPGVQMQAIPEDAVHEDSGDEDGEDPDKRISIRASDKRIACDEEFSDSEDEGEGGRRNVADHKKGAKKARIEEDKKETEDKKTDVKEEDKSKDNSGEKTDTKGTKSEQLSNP

Histone deacetylase 1 [3] = molecular target: T1, Histone deacetylase 1; assay: Inhibition of HDAC1 (unknown origin) incubated for 30 mins by fluorescence based assay
[4] = molecular target: T2, Protein deacetylase HDAC6 (Homo sapiens, UniProt Q9UBN7); assay: Inhibition of HDAC6 (unknown origin) incubated for 30 mins by fluorescence based assay
T2 sequence (Q9UBN7 whole entry): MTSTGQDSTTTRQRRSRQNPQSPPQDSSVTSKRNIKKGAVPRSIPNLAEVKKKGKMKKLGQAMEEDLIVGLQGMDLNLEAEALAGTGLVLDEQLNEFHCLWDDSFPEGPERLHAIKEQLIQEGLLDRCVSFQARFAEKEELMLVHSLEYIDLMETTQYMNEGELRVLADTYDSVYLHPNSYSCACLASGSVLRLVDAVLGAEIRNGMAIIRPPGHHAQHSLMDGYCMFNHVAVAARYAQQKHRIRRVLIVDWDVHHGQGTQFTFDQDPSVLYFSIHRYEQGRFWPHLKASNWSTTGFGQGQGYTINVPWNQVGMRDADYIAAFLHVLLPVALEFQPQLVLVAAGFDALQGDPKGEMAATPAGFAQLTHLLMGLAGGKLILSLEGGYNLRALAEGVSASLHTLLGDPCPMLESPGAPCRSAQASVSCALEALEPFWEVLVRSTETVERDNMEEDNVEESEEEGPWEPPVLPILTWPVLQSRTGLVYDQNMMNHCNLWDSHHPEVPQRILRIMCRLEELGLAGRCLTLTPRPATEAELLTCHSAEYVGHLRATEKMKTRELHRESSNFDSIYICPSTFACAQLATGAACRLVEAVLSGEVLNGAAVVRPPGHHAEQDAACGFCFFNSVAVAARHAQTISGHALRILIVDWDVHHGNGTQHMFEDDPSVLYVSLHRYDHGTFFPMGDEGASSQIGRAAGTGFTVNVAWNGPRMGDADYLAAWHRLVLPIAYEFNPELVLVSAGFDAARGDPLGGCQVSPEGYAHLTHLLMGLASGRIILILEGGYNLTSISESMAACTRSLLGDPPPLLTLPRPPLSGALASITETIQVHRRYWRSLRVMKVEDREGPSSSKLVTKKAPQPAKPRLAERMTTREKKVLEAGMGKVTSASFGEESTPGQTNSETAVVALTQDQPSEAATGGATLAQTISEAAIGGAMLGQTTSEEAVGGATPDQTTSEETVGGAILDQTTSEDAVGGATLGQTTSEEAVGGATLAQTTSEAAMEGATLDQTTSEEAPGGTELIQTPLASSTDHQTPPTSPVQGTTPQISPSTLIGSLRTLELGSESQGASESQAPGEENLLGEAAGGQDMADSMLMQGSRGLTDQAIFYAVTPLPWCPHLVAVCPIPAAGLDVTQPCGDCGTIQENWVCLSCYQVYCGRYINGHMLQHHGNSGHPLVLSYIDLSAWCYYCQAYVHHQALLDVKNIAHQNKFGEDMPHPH

Histone deacetylase 1 [5] = molecular target: T1, Histone deacetylase 1; assay: Inhibition of HDAC1 (unknown origin) using fluorimetric substrate incubated for 30 mins by fluorogenic assay
[6] = molecular target: T3, von Hippel-Lindau disease tumor suppressor/Histone deacetylase 1 (Homo sapiens, UniProt P40337+Q13547); assay: PROTAC activity at VHL/HDAC1 (unknown origin) by cell based assay
T3 sequence (Q13547 whole entry): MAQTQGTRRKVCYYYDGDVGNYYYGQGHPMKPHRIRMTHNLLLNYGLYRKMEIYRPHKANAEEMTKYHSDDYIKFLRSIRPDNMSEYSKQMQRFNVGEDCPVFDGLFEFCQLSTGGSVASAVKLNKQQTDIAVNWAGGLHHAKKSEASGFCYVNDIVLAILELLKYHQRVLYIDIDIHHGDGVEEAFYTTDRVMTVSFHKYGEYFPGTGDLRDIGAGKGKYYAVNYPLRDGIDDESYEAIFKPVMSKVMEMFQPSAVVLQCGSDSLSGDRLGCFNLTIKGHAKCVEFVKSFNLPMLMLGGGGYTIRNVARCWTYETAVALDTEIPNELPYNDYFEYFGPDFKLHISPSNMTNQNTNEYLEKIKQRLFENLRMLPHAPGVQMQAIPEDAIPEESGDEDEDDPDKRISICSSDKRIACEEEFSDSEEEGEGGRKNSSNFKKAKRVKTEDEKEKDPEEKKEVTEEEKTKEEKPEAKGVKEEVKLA
T3 sequence (P40337 whole entry): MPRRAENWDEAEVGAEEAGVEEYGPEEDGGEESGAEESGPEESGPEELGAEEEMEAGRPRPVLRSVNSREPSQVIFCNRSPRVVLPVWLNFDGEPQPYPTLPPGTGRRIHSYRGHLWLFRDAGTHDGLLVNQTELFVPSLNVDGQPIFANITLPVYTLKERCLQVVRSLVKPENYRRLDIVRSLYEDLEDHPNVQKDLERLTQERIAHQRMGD

[7] = molecular target: T4, von Hippel-Lindau disease tumor suppressor/Histone deacetylase 3 (Homo sapiens, UniProt O15379+P40337); assay: PROTAC activity at VHL/HDAC3 (unknown origin) by cell based assay
Target sequence in this assay (O15379 whole entry): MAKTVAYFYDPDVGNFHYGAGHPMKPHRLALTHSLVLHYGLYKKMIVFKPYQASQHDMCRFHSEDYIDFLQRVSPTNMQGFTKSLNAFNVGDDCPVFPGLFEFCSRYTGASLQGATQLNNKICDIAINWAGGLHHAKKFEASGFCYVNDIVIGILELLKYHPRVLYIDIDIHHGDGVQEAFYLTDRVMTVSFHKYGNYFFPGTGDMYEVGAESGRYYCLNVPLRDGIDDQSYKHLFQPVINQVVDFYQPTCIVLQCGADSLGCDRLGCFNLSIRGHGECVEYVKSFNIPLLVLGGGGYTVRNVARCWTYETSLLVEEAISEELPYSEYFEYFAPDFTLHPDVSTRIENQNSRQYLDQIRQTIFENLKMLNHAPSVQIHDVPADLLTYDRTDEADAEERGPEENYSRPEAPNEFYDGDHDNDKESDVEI
Target sequence in this assay (P40337 whole entry): as the sequence (P40337 whole entry) above

[8] = molecular target: T4, von Hippel-Lindau disease tumor suppressor/Histone deacetylase 3; assay: PROTAC activity at VHL/HDAC3 in human MDA-MB-468 cells assessed as induction of HDAC3 degradation incubated for 14 hrs by Western blot analysis; type: cell-based
Target sequence in this assay (O15379 whole entry): as the sequence (O15379 whole entry) above
Target sequence in this assay (P40337 whole entry): as the sequence (P40337 whole entry) above

[9] = molecular target: von Hippel-Lindau disease tumor suppressor/Histone deacetylase 2 (Homo sapiens, UniProt P40337+Q92769); assay: PROTAC activity at VHL/HDAC2 (unknown origin) by cell based assay
Chain of von Hippel-Lindau disease tumor suppressor/Histone deacetylase 2 (Q92769 whole entry): as the sequence (Q92769 whole entry) above
Chain of von Hippel-Lindau disease tumor suppressor/Histone deacetylase 2 (P40337 whole entry): as the sequence (P40337 whole entry) above

[10] = molecular target: Protein cereblon/Histone deacetylase 1 (Homo sapiens, UniProt Q13547+Q96SW2); assay: PROTAC activity at CRBN/HDAC1 (unknown origin) by cell based assay
Chain of Protein cereblon/Histone deacetylase 1 (Q13547 whole entry): as the sequence (Q13547 whole entry) above
Chain of Protein cereblon/Histone deacetylase 1 (Q96SW2 whole entry): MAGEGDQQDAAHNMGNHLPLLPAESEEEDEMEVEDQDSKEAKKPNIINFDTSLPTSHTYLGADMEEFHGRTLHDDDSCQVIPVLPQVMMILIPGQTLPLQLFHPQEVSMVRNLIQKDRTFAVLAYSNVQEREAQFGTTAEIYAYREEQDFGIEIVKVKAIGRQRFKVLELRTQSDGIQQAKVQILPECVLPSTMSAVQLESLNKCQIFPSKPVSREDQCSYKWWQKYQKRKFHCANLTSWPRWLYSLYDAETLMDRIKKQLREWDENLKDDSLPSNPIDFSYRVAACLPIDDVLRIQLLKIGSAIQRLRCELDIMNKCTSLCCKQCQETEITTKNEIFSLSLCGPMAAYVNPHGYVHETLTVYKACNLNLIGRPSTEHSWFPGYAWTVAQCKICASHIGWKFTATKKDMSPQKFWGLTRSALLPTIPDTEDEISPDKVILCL

[11] = molecular target: Protein cereblon/Protein deacetylase HDAC6 (Homo sapiens, UniProt Q96SW2+Q9UBN7); assay: PROTAC activity at CRBN/HDAC6 (unknown origin) by cell based assay
Chain of Protein cereblon/Protein deacetylase HDAC6 (Q96SW2 whole entry, one chain of several): as the sequence (Q96SW2 whole entry) above

[12] = molecular target: Protein cereblon/Histone deacetylase 3 (Homo sapiens, UniProt O15379+Q96SW2); assay: PROTAC activity at CRBN/HDAC3 (unknown origin) by cell based assay
Chain of Protein cereblon/Histone deacetylase 3 (O15379 whole entry): as the sequence (O15379 whole entry) above
Chain of Protein cereblon/Histone deacetylase 3 (Q96SW2 whole entry): as the sequence (Q96SW2 whole entry) above

[13] = molecular target: Protein cereblon/Histone deacetylase 2 (Homo sapiens, UniProt Q92769+Q96SW2); assay: PROTAC activity at CRBN/HDAC2 (unknown origin) by cell based assay
Chain of Protein cereblon/Histone deacetylase 2 (Q92769 whole entry): as the sequence (Q92769 whole entry) above
Chain of Protein cereblon/Histone deacetylase 2 (Q96SW2 whole entry): as the sequence (Q96SW2 whole entry) above

[14] = molecular target: T4, von Hippel-Lindau disease tumor suppressor/Histone deacetylase 3; assay: PROTAC activity at VHL/HDAC3 in human HCT-116 cells assessed as induction of HDAC1 degradation at 1 uM incubated for 24 hrs by Western blot analysis relative to control; type: cell-based
Target sequence in this assay (O15379 whole entry, looked up): as the sequence (O15379 whole entry) above
Target sequence in this assay (P40337 whole entry, looked up): as the sequence (P40337 whole entry) above

[15] = molecular target: von Hippel-Lindau disease tumor suppressor/Histone deacetylase 2 (Homo sapiens) (UniProt Q92769+P40337); assay: PROTAC activity at VHL/HDAC2 in human HCT-116 cells assessed as induction of HDAC1 degradation at 1 uM incubated for 24 hrs by Western blot analysis relative to control; type: cell-based
Chain of von Hippel-Lindau disease tumor suppressor/Histone deacetylase 2 (Homo sapiens) (P40337 whole entry, looked up): as the sequence (P40337 whole entry) above
Chain of von Hippel-Lindau disease tumor suppressor/Histone deacetylase 2 (Homo sapiens) (Q92769 whole entry, looked up): as the sequence (Q92769 whole entry) above

[16] = molecular target: von Hippel-Lindau disease tumor suppressor/Histone deacetylase 1 (Homo sapiens) (UniProt Q13547+P40337); assay: PROTAC activity at VHL/HDAC1 in human HCT-116 cells assessed as induction of HDAC1 degradation at 1 uM incubated for 24 hrs by Western blot analysis relative to control; type: cell-based
Chain of von Hippel-Lindau disease tumor suppressor/Histone deacetylase 1 (Homo sapiens) (P40337 whole entry, looked up): as the sequence (P40337 whole entry) above
Chain of von Hippel-Lindau disease tumor suppressor/Histone deacetylase 1 (Homo sapiens) (Q13547 whole entry, looked up): as the sequence (Q13547 whole entry) above

[17] = molecular target: T3, von Hippel-Lindau disease tumor suppressor/Histone deacetylase 1; assay: PROTAC activity at VHL/LSD1/HDAC1/CoREST complex interaction (unknown origin) assessed as induction of HDAC1 degradation using Boc-(Ac)Lys-AMC as substrate incubated for 20 mins by fluorescence based assay
[18] = molecular target: T2, Protein deacetylase HDAC6; assay: Inhibition of HDAC6 derived from human HeLa cell nuclear extract using Boc-Lys(Ac)-AMC as substrate by fluorescence based assay; type: cell-free
Histone deacetylase 1 [19] = molecular target: T1, Histone deacetylase 1; assay: Inhibition of HDAC1 derived from human HeLa cell nuclear extract using Boc-Lys(Ac)-AMC as substrate by fluorescence based assay; type: cell-free
Histone deacetylase 1 [20] = molecular target: T1, Histone deacetylase 1; assay: Inhibition of recombinant human HDAC1 using fluorogenic acetylated peptide substrate incubated for 30 mins by microplate reader analysis
Homo sapiens = organism: Homo sapiens; assay: Selectivity ratio of IC50 for recombinant human HDAC6 to IC50 for recombinant human HDAC1
HeLa = assay: Antiproliferative activity against human HeLa cells assessed as cell growth inhibition incubated for 48 hrs by MTT assay; type: functional, cell-based
[21] = Inhibition of His-tagged recombinant human HDAC1 expressed in baculovirus infected insect cells using SIRT1 deacetylase substrate incubated for 30 mins by Luminescence Glo assay

T1 sequence (Q13547 whole entry): as above

## Nc1ccccc1NC(=O)c1ccc2ncccc2c1
[1]
  IC50: 560 nM
Histone deacetylase 1 [2]
  IC50: 18700 nM
Histone deacetylase 2
  IC50: 26000 nM

## O=C(CCCCCCC(=O)Nc1nc2c(s1)C[C@@H](NC(=O)c1cccc3ccccc13)CC2)NO
Histone deacetylase 1 [3]
  IC50: 1.4 nM
[4]
  IC50: 4.6 nM

## Cc1ccc(C(=O)Nc2nc(C(=O)NO)co2)cc1
Histone deacetylase 1 [5]
  IC50: 10 nM

## CCCNNC(=O)c1ccc(-c2ccc(NC(=O)CCCCCCC(=O)N[C@H](C(=O)N3C[C@H](O)C[C@H]3C(=O)N[C@@H](C)c3ccc(-c4scnc4C)cc3)C(C)(C)C)cc2)cc1
[6]
  IC50: 650 nM
[7]
  IC50: 350 nM
[8]
  EC50: 42 nM
[9]
  IC50: 1550 nM

## O=C(CCCCCCNC(=O)c1ccc(NC(=O)COCCOCCNC(=O)COc2cccc3c2C(=O)N(C2CCC(=O)NC2=O)C3=O)cc1)NO (centres undefined)
[10]
  IC50: 174 nM
[11]
  IC50: 27 nM
[12]
  IC50: 27 nM
[13]
  IC50: 248 nM

## Cc1ncsc1-c1ccc(CNC(=O)[C@@H]2C[C@@H](O)CN2C(=O)[C@@H](NC(=O)CCCCCCCCCCC(=O)Nc2ccc(C(=O)Nc3ccccc3N)cc2)C(C)(C)C)cc1
[14]
  Activity: 50%
[15]
  Activity: 50%
[16]
  Activity: 50%
[17]
  IC50: 16800 nM

## CC(C)n1cnc2c(-c3cccc(OCCCC(=O)NO)c3)nc(N3CCOCC3)nc21
[18]
  IC50: 24 nM
Histone deacetylase 1 [19]
  IC50: 82 nM

## COc1ccc2cc(C(=O)Oc3cccc(/C=C/C(=O)NO)c3)c(=O)oc2c1
Histone deacetylase 1 [20]
  IC50: 190 nM
Homo sapiens
  Ratio IC50: 26
HeLa
  IC50: 230 nM

## CCCCNNC(=O)c1ccc(-c2ccccc2)cc1
[21]
  IC50: 90 nM
